Laboratory results from ChEMBL document CHEMBL1201862, “PubChem BioAssay data set” (2004).
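Tested at 5 concentrations; 48 h exposure; 96-well plates; endpoints linearly interpolated, else capped at highest concentration. GI50 marks 50% less growth.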 Active and inactive are the calls of the source. No stated cut-off is given here; in the data, active = GI50 up to about 1.1 µM and inactive = higher.

Columns and labels:
Test in all cases: NCI tumour cell line growth inhibition, 48 h
HCT-116 = tested on: HCT-116
SF-539 = tested on: SF-539
SK-MEL-28 = tested on: SK-MEL-28
A549 = tested on: A549
IGROV-1 = tested on: IGROV-1
OVCAR-5 = tested on: OVCAR-5
HOP-92 = tested on: HOP-92
CAKI-1 = tested on: CAKI-1
RXF 393 = tested on: RXF 393
MOLT-4 = tested on: MOLT-4
UO-31 = tested on: UO-31
NCI-H460 = tested on: NCI-H460
CCRF-CEM = tested on: CCRF-CEM
ACHN = tested on: ACHN
SNB-19 = tested on: SNB-19
MDA-N = tested on: MDA-N
SK-MEL-2 = tested on: SK-MEL-2
HL-60 = tested on: HL-60

Row | SMILES | GI50 (HCT-116) | GI50 (SF-539) | GI50 (SK-MEL-28) | GI50 (A549) | GI50 (IGROV-1) | GI50 (OVCAR-5) | GI50 (HOP-92) | GI50 (CAKI-1) | GI50 (RXF 393) | GI50 (MOLT-4) | GI50 (UO-31) | GI50 (NCI-H460) | GI50 (CCRF-CEM) | GI50 (ACHN) | GI50 (SNB-19) | GI50 (MDA-N) | GI50 (SK-MEL-2) | GI50 (HL-60)
1 | Cc1nn(-c2ccccc2)c2nc3c(c(C)nn3-c3ccccc3)c(-c3ccccc3Br)c12 | > 100 µM (inactive) | > 100 µM (inactive) | > 100 µM (inactive) | 8.95 µM (inactive) | > 100 µM (inactive) | > 100 µM (inactive) | > 100 µM (inactive) | > 100 µM (inactive) | > 100 µM (inactive) | > 100 µM (inactive) | 59.4 µM (inactive) | > 100 µM (inactive) | > 100 µM (inactive) | > 100 µM (inactive) | > 100 µM (inactive) | > 100 µM (inactive) | – | –
2 | Nn1c(CCCCCCCCc2nnc(COc3ccc(Cl)cc3)n2N)nnc1COc1ccc(Cl)cc1 | 74.5 µM (inactive) | – | > 100 µM (inactive) | > 100 µM (inactive) | > 100 µM (inactive) | > 100 µM (inactive) | > 100 µM (inactive) | 16.9 µM (inactive) | > 100 µM (inactive) | 49.5 µM (inactive) | 25.4 µM (inactive) | > 100 µM (inactive) | – | > 100 µM (inactive) | > 100 µM (inactive) | – | > 100 µM (inactive) | –
3 | CCCCCCCCCCCCCCCCCCNc1ccn(C2OC(COP(=O)(O)OCC3CCC(n4cnc5c(=O)[nH]cnc54)O3)C(O)C2O)c(=O)n1 (stereo not given) | > 100 µM (inactive) | 83.8 µM (inactive) | > 100 µM (inactive) | > 100 µM (inactive) | 84.1 µM (inactive) | 35.4 µM (inactive) | > 100 µM (inactive) | > 100 µM (inactive) | 19.9 µM (inactive) | > 100 µM (inactive) | > 100 µM (inactive) | > 100 µM (inactive) | 29.3 µM (inactive) | > 100 µM (inactive) | > 100 µM (inactive) | > 100 µM (inactive) | > 100 µM (inactive) | –
4 | Cc1ccc(-c2c(C#N)c(-c3ccccc3)n(NS(=O)(=O)c3ccc(C)cc3)c(=O)c2C#N)cc1 | 35.1 µM (inactive) | 34 µM (inactive) | 52.1 µM (inactive) | 55.8 µM (inactive) | 36.7 µM (inactive) | > 100 µM (inactive) | 11.4 µM (inactive) | 71.1 µM (inactive) | 51.5 µM (inactive) | 19.8 µM (inactive) | – | 34.3 µM (inactive) | 23 µM (inactive) | 38 µM (inactive) | 50.8 µM (inactive) | 71.8 µM (inactive) | 35.8 µM (inactive) | –
5 | Nc1nc(Cl)c2nnn(CC3CCC(CO)C3)c2n1 (stereo not given) | > 100 µM (inactive) | > 100 µM (inactive) | > 100 µM (inactive) | > 100 µM (inactive) | – | > 100 µM (inactive) | > 100 µM (inactive) | > 100 µM (inactive) | > 100 µM (inactive) | – | > 100 µM (inactive) | – | > 100 µM (inactive) | > 100 µM (inactive) | > 100 µM (inactive) | > 100 µM (inactive) | > 100 µM (inactive) | –
6 | Cc1cnc2sn(-c3ccc([N+](=O)[O-])cc3)c(=O)c2c1 | > 100 µM (inactive) | – | > 100 µM (inactive) | 64.3 µM (inactive) | 57.3 µM (inactive) | > 100 µM (inactive) | 33.3 µM (inactive) | – | – | > 100 µM (inactive) | 74.6 µM (inactive) | 60.4 µM (inactive) | – | 29.4 µM (inactive) | 50.4 µM (inactive) | > 100 µM (inactive) | 45.7 µM (inactive) | –
7 | CCOC(=O)c1c(SCCN2CCCC2)n(-c2ccccc2)c(=S)n(-c2ccccc2)c1=O | 4.27 µM (inactive) | 2.38 µM (inactive) | 2.75 µM (inactive) | 4.02 µM (inactive) | 2.03 µM (inactive) | 26.9 µM (inactive) | 1.6 µM (inactive) | 2.29 µM (inactive) | 1.74 µM (inactive) | 1.65 µM (inactive) | – | 5.81 µM (inactive) | 0.951 µM (active) | 1.72 µM (inactive) | 17.4 µM (inactive) | 2.36 µM (inactive) | 11.4 µM (inactive) | –
8 | CCOC(=O)CSc1nc(-c2ccc(Cl)cc2)c(C#N)c(=O)[nH]1 | 72.9 µM (inactive) | > 100 µM (inactive) | > 100 µM (inactive) | > 100 µM (inactive) | > 100 µM (inactive) | > 100 µM (inactive) | 42.3 µM (inactive) | > 100 µM (inactive) | > 100 µM (inactive) | > 100 µM (inactive) | 77.3 µM (inactive) | > 100 µM (inactive) | 41.1 µM (inactive) | > 100 µM (inactive) | 74.8 µM (inactive) | – | > 100 µM (inactive) | 22 µM (inactive)
9 | S=c1oc(CCCCCCCCc2nn(CNc3ccccc3)c(=S)o2)nn1CNc1ccccc1 | > 100 µM (inactive) | – | > 100 µM (inactive) | > 100 µM (inactive) | – | > 100 µM (inactive) | > 100 µM (inactive) | > 100 µM (inactive) | – | > 100 µM (inactive) | > 100 µM (inactive) | > 100 µM (inactive) | – | > 100 µM (inactive) | > 100 µM (inactive) | – | > 100 µM (inactive) | –
10 | CC(=O)[C@@H]1C/C(=C\OCc2ccccc2)O[C@H]1C | > 100 µM (inactive) | > 100 µM (inactive) | > 100 µM (inactive) | > 100 µM (inactive) | > 100 µM (inactive) | > 100 µM (inactive) | > 100 µM (inactive) | > 100 µM (inactive) | > 100 µM (inactive) | > 100 µM (inactive) | > 100 µM (inactive) | > 100 µM (inactive) | – | > 100 µM (inactive) | > 100 µM (inactive) | – | – | –
11 | c1ccc(Nc2nnc(Cn3ccc4ccccc43)s2)cc1 | 42.7 µM (inactive) | 35.6 µM (inactive) | 80.5 µM (inactive) | 32.4 µM (inactive) | 46.9 µM (inactive) | > 100 µM (inactive) | 54.7 µM (inactive) | 22.4 µM (inactive) | 73.5 µM (inactive) | 23.1 µM (inactive) | 36.4 µM (inactive) | 47 µM (inactive) | 49.3 µM (inactive) | 39.8 µM (inactive) | 60 µM (inactive) | > 100 µM (inactive) | > 100 µM (inactive) | –
12 | O=C(OCC1CCCN2CCCCC12)c1ccncc1 (stereo not given) | > 100 µM (inactive) | > 100 µM (inactive) | > 100 µM (inactive) | > 100 µM (inactive) | > 100 µM (inactive) | > 100 µM (inactive) | > 100 µM (inactive) | > 100 µM (inactive) | > 100 µM (inactive) | > 100 µM (inactive) | > 100 µM (inactive) | > 100 µM (inactive) | > 100 µM (inactive) | > 100 µM (inactive) | > 100 µM (inactive) | > 100 µM (inactive) | > 100 µM (inactive) | –
13 | Nc1ccc2nc(N)n[n+]([O-])c2c1 | > 100 µM (inactive) | > 100 µM (inactive) | > 100 µM (inactive) | > 100 µM (inactive) | > 100 µM (inactive) | > 100 µM (inactive) | – | > 100 µM (inactive) | – | > 100 µM (inactive) | > 100 µM (inactive) | > 100 µM (inactive) | > 100 µM (inactive) | > 100 µM (inactive) | > 100 µM (inactive) | > 100 µM (inactive) | > 100 µM (inactive) | > 100 µM (inactive)
14 | Cc1cc(CNC(=O)OCc2ccccc2)c(C)c2c1Oc1ccccc1O2 | 36.6 µM (inactive) | – | > 100 µM (inactive) | 20.9 µM (inactive) | 24.2 µM (inactive) | 43.4 µM (inactive) | 1.26 µM (inactive) | 21.1 µM (inactive) | 12.7 µM (inactive) | > 100 µM (inactive) | 28.6 µM (inactive) | > 100 µM (inactive) | > 100 µM (inactive) | 43.8 µM (inactive) | 25.5 µM (inactive) | – | < 0.01 µM (active) | –
15 | Cc1cc2nc3c(C#N)c(-c4ccccc4)cc(Nc4cccc(C(F)(F)F)c4)n3c2cc1C | 2.7 µM (inactive) | 3.78 µM (inactive) | 9.02 µM (inactive) | 3.18 µM (inactive) | – | 12.9 µM (inactive) | – | 4.85 µM (inactive) | 5.48 µM (inactive) | – | 5.08 µM (inactive) | 3.33 µM (inactive) | 3.6 µM (inactive) | 3.4 µM (inactive) | 4.86 µM (inactive) | 4.04 µM (inactive) | 2.61 µM (inactive) | –
16 | COc1ccccc1NC(=O)CC(=O)N1N=C(N2c3ccccc3Sc3ccccc32)CC1c1ccccc1 (stereo not given) | > 100 µM (inactive) | > 100 µM (inactive) | > 100 µM (inactive) | > 100 µM (inactive) | > 100 µM (inactive) | > 100 µM (inactive) | > 100 µM (inactive) | > 100 µM (inactive) | > 100 µM (inactive) | > 100 µM (inactive) | > 100 µM (inactive) | > 100 µM (inactive) | > 100 µM (inactive) | > 100 µM (inactive) | > 100 µM (inactive) | – | > 100 µM (inactive) | > 100 µM (inactive)
17 | O=C1CCCC2=C1CC1=C(CCCC1=O)N2c1cccc2ccccc12 | – | > 100 µM (inactive) | > 100 µM (inactive) | > 100 µM (inactive) | > 100 µM (inactive) | > 100 µM (inactive) | 33 µM (inactive) | > 100 µM (inactive) | 10.9 µM (inactive) | 78 µM (inactive) | > 100 µM (inactive) | > 100 µM (inactive) | 47.3 µM (inactive) | > 100 µM (inactive) | 75 µM (inactive) | – | – | 17 µM (inactive)
